Measured values reported in US10898434B2, “Single-walled carbon nanotube-assisted antibiotic delivery and imaging techniques” (Texas Christian University, priority 2018, dated 2021).

Experiments:
Type in all cases: cell-based, Staphylococcus epidermidis
[1] = test system: S. epidermidis; assay: Disk diffusion (zone inhibition) assay; conditions: 2 and 4 mg doses; compared to non-treatment control; 24 h at 37° C.
Protocol: S. epidermidis broth of McFarland 0.5 standard (absorption of 0.08 to 0.1) was created using Mueller Hilton Broth. This standard stabilized the cell count at an approximate 1×10^8 CFU/mL Dilution was plated within 15 minutes of standardization. Following the proper aseptic techniques, 0.2 mL of bacterial broth was placed in the center of prepared agar dish. A sterile bacteria spreader was used to evenly spread the bacteria throughout the plate to create a lawn.
Two different dosages of the antibacterial solutions were tested to increase the breadth and reliability of data. […] Petri dishes are incubated for 24 h at 37° C., then the zones of inhibition were measured with the inclusion of disk diameter in the measurements.
The statistical analysis performed in this work confirm the significance of the observed results for diffusion discs performed at different amounts of SWCNT/antibiotic complex loaded onto discs. […] When the p-value of the analysis is lower than the confidence level chosen, the hypothesis is proven false and a significant difference and variation is detected.
The dataset is analyzed using a comparison of means function by assigning a mean of the control group and comparing it to the means of each of the treatment groups. […]

[2] = test system: S. epidermidis; assay: Colony count (colony formation) assay; conditions: 100 μl stock solution, 24 h at 37° C.
Protocol: Using S. epidermidis broth (McFarland 0.5 standard), 100 μl was placed in the center of the agar plate. 100 μl of the respective antibacterial stock solution is added to the center. Bacteria was spread through the Petri dish and the plates were further incubated for 24 h at 37° C. Pictures of the plates were uploaded onto the OpenCFU software to count the number of colonies grown on the plate. Two plates were prepared for each antibacterial treatment with corresponding controls.

[3] = test system: S. epidermidis; assay: Turbidity assay (absorption at 600 nm); conditions: serial dilution, 24 h at 37° C.
Protocol: A serial dilution (using the factor of 2) of antibacterial solutions was conducted in 12-well plates starting with 200 μL of antibacterial solution was placed in first well. 850 μl of broth and 50 μl of bacterial broth were added to each well plate. The concentrations tested for doxycycline were 1, 0.5, 0.25, 0.125 and 0 mg/mL. The concentrations tested for methicillin are 1.25, 0.625,0.313, […] and 0 mg/mL. Plates were that incubated at 37° C. for 24 h. The solutions were transferred to cuvettes, and their turbidity is measured using a Cary 500 spectrophotometer with the broth used as a baseline. Two wells were prepared for each concentration.

`COc1cccc(OC)c1C(=O)N[C@@H]1C(=O)N2[C@@H]1SC(C)(C)[C@@H]2C(=O)O` [methicillin] was tested, and the “antibacterial effect (zone of inhibition) of antibiotic alone” value [1] was “no antibiotic activity”, the “colony count (in words)” value [2] was “complete lack of inhibition response” and the “turbidity of bacterial media (absorption at 600 nm)” value [3] was “some bacterial inhibition”.
